These are literature values, as cited in patent publication US20080090885A1 (priority 2006, published 2008).

As usually defined, the half-life is how long it takes for the measured level to halve.

For data set [1] the following is noted: for half-life: in vivo.
Data set [2] concerns the target T1, AT1 receptor (Homo sapiens, UniProt P30556).
T1 sequence (P30556 1-359): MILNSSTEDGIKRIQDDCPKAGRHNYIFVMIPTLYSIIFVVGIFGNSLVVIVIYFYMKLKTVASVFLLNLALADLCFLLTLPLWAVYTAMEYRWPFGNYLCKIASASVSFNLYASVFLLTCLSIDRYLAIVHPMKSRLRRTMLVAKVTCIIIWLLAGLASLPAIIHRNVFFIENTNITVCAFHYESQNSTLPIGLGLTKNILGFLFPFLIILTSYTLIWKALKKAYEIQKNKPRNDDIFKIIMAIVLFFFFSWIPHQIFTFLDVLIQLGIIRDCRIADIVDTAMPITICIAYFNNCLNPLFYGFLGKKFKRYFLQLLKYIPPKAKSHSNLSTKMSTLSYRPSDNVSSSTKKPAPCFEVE

Consider `CCCCc1nc(Cl)c(C(=O)O)n1Cc1ccc(-c2ccccc2-c2nn[nH]n2)cc1` [EXP-3174, losartan 5-carboxylic acid], for which the half-life in data set [1] was 6 to 9 h. In addition, the “type of AT1 receptor antagonism” value in data set [2] is “non-competitive AT1 receptor antagonist”.
For `CCCCc1nc(Cl)c(CO)n1Cc1ccc(-c2ccccc2-c2nn[nH]n2)cc1` [Losartan], the half-life result in data set [1] was “about 2 hours”. In data set [1] (oral), the oral bioavailability result was “about 33%” and the “peak plasma levels (time to peak)” value was 1 h. Also, the “type of AT1 receptor antagonism” value in data set [2] is reported as “potent, competitive AT1 receptor antagonist”.
